Measurements: ChEMBL document CHEMBL4417631, “Oral peptide inhibitors of interleukin-23 receptor and their use to treat inflammatory bowel diseases” (2017)

Legend:
[1] = target: T1, Interleukin-23 receptor (Homo sapiens, UniProt Q5VWK5); experiment: Inhibition of interleukin-23 receptor in human DB cells assessed as reduction in IL-23-stimulated STAT3 phosphorylation incubated for 30 mins by HTRF assay; assay type: cell-based
T1 sequence (Q5VWK5 whole entry): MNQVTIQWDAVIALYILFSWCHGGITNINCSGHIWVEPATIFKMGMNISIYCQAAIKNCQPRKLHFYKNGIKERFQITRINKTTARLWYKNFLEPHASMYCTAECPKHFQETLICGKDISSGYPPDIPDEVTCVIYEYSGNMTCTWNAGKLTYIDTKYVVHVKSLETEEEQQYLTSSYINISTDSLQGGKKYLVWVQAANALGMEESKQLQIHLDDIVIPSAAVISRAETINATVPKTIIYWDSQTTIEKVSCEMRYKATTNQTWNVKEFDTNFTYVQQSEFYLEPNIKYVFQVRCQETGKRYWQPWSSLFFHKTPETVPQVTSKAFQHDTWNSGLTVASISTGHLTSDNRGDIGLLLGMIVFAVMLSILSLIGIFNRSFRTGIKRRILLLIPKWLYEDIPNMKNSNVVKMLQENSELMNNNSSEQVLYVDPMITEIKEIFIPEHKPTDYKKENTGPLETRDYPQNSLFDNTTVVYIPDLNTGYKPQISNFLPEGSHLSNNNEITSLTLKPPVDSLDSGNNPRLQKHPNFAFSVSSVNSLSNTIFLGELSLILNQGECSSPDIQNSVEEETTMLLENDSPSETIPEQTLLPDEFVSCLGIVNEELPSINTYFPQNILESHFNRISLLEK

[2] = Inhibition of interleukin-23 binding to rat interleukin-23 receptor incubated for 2 hrs by competitive binding ELISA
[3] = Half life in simulated gastric fluid at 20 uM by LC-MS/MS analysis; assay type: ADME
[4] = Half life in simulated intestinal fluid at 20 uM by LC-MS/MS analysis; assay type: ADME
[5] = target: T1, Interleukin-23 receptor; experiment: Inhibition of interleukin-23 receptor in human natural killer cells assessed as reduction in IL23/IL18-induced IFNgamma production incubated for 20 to 24 hrs by ELISA; assay type: cell-based
[6] = target: T1, Interleukin-23 receptor; experiment: Inhibition of interleukin-23 binding to human interleukin-23 receptor incubated for 2 hrs by competitive binding ELISA

Row | SMILES | IC50 [1] [nM] | IC50 [2] [nM] | half-life at 20 µM [3] [h] | half-life at 20 µM [4] [h] | IC50 [5] [nM] | IC50 [6] [nM]
1 | CC(=O)N[C@H]1CCSC[C@@H](C(=O)N[C@@H](Cc2ccc(OCCN)cc2)C(=O)N[C@@H](Cc2ccc3ccccc3c2)C(=O)NC2(C(=O)N[C@@H](CCC(=O)O)C(=O)N[C@@H](CC(N)=O)C(=O)N[C@@H](CC(N)=O)C(N)=O)CCC2)NC(=O)[C@H](CCC(N)=O)NC(=O)[C@H](Cc2c[nH]c3ccccc23)NC(=O)[C@H]([C@@H](C)O)NC(=O)[C@H](CCC(N)=O)NC1=O | < 10 | < 10 | 1 to 2 | < 1 | < 25 | 
2 | COc1ccc(C[C@H](NC(=O)[C@@H](NC(=O)[C@H](CCC(N)=O)NC(=O)[C@H](Cc2c[nH]c3ccccc23)NC(=O)[C@@H](NC(=O)[C@H](CCC(N)=O)NC(=O)[C@@H](NC(C)=O)C(C)(C)S)[C@@H](C)O)C(C)(C)S)C(=O)N[C@@H](Cc2ccc3ccccc3c2)C(=O)N[C@@](C)(CCCCN)C(=O)N[C@@H](CCCCNC(C)=O)C(=O)N[C@@H](CC(N)=O)C(=O)N[C@@H](CC(N)=O)C(N)=O)cc1 | < 10 |  |  |  | < 10 | 
3 | COc1ccc(C[C@H](NC(=O)[C@@H](NC(=O)[C@H](CCC(N)=O)NC(=O)[C@H](Cc2c[nH]c3ccccc23)NC(=O)[C@@H](NC(=O)[C@H](CC(N)=O)NC(=O)[C@@H](NC(=O)[C@@H](Cc2ccccc2)NC(C)=O)C(C)(C)S)[C@@H](C)O)C(C)(C)S)C(=O)N[C@@H](Cc2ccc3ccccc3c2)C(=O)NC2(C(=O)N[C@@H](CCCNC(N)=O)C(=O)N[C@@H](CC(N)=O)C(=O)N[C@@H](CC(N)=O)C(N)=O)CCCCC2)cc1 |  |  |  |  | < 10 | 
4 | CC(=O)N[C@H]1CCSC[C@@H](C(=O)N[C@@H](Cc2ccc(O)cc2)C(=O)N[C@@H](Cc2ccc3ccccc3c2)C(=O)N[C@@](C)(CC(C)C)C(=O)N[C@@H](CCC(=O)O)C(=O)N[C@@H](CC(N)=O)C(=O)NCC(N)=O)NC(=O)[C@H](CCC(N)=O)NC(=O)[C@H](Cc2c[nH]c3ccccc23)NC(=O)[C@H]([C@@H](C)O)NC(=O)[C@H](CCC(N)=O)NC1=O | < 10 | 10 to 25 |  | < 1 | < 25 | 10 to 25
5 | CC(=O)NCCCC[C@H](NC(=O)C(C)(C)NC(=O)[C@H](Cc1ccc2ccccc2c1)NC(=O)[C@H](Cc1ccc(C(N)=O)cc1)NC(=O)[C@@H](NC(=O)[C@H](CCC(N)=O)NC(=O)[C@H](Cc1c[nH]c2ccccc12)NC(=O)[C@@H](NC(=O)[C@H](CC(N)=O)NC(=O)[C@@H](NC(C)=O)C(C)(C)S)[C@@H](C)O)C(C)(C)S)C(=O)N[C@@H](CC(N)=O)C(=O)N[C@@H](CC(N)=O)C(N)=O |  |  | 3 to 6 | 1 to 2 | < 10 | 
6 | COc1ccc(C[C@H](NC(=O)[C@H](Cc2ccc(OCCN)cc2)NC(=O)[C@@H]2CSCC[C@H](NC(C)=O)C(=O)N[C@@H](CCC(N)=O)C(=O)N[C@@H]([C@@H](C)O)C(=O)N[C@@H](Cc3c[nH]c4ccccc34)C(=O)N[C@@H](CCC(N)=O)C(=O)N2)C(=O)N[C@@](C)(CCCCN)C(=O)N[C@@H](CCCCNC(C)=O)C(=O)N[C@@H](CC(N)=O)C(=O)NCC(N)=O)cc1OC | < 10 | 25 to 100 |  |  | < 25 | 10 to 25
7 | COc1ccc(C[C@H](NC(=O)[C@@H](NC(=O)[C@H](CCC(N)=O)NC(=O)[C@H](Cc2c[nH]c3ccccc23)NC(=O)[C@@H](NC(=O)[C@H](CC(N)=O)NC(=O)[C@@H](NC(=O)[C@@H](Cc2ccccc2)NC(C)=O)C(C)(C)S)[C@@H](C)O)C(C)(C)S)C(=O)N[C@@H](Cc2ccc3ccccc3c2)C(=O)NC2(C(=O)N[C@@H](CCCNC(N)=O)C(=O)N[C@@H](CC(N)=O)C(=O)N[C@@H](CC(N)=O)C(N)=O)CCOCC2)cc1 |  |  |  |  | < 10 | 
8 | COc1ccc(C[C@H](NC(=O)[C@@H]2CSCC[C@H](NC(C)=O)C(=O)N[C@@H](CCC(N)=O)C(=O)N[C@@H]([C@@H](C)O)C(=O)N[C@@H](Cc3c[nH]c4ccccc34)C(=O)N[C@@H](CCC(N)=O)C(=O)N2)C(=O)N[C@@H](Cc2ccc3ccccc3c2)C(=O)N[C@@](C)(CCCCNC(=O)COCC(=O)NCCCC[C@](C)(NC(=O)[C@H](Cc2ccc3ccccc3c2)NC(=O)[C@H](Cc2ccc(OC)cc2)NC(=O)[C@@H]2CSCC[C@H](NC(C)=O)C(=O)N[C@@H](CCC(N)=O)C(=O)N[C@@H]([C@@H](C)O)C(=O)N[C@@H](Cc3c[nH]c4ccccc34)C(=O)N[C@@H](CCC(N)=O)C(=O)N2)C(=O)N[C@@H](CCC(=O)O)C(=O)N[C@@H](CC(N)=O)C(=O)NCC(N)=O)C(=O)N[C@@H](CCC(=O)O)C(=O)N[C@@H](CC(N)=O)C(=O)NCC(N)=O)cc1 | < 10 | 10 to 25 |  |  | < 25 | < 10
9 | CC(=O)NCCCC[C@H](NC(=O)[C@](C)(CCCCN)NC(=O)[C@H](Cc1ccc2ccccc2c1)NC(=O)[C@H](Cc1ccc(C(N)=O)cc1)NC(=O)[C@@H](NC(=O)[C@H](CCC(N)=O)NC(=O)[C@H](Cc1c[nH]c2ccccc12)NC(=O)[C@@H](NC(=O)[C@H](CCC(N)=O)NC(=O)[C@@H](NC(C)=O)C(C)(C)S)[C@@H](C)O)C(C)(C)S)C(=O)N[C@@H](CC(N)=O)C(=O)N[C@@H](CC(N)=O)C(N)=O | < 10 | 25 to 100 |  |  | < 10 | 
10 | CC(=O)N[C@H](CCC(=O)O)C(=O)N[C@H]1CCSC[C@@H](C(=O)N[C@@H](Cc2ccc(OCCN)cc2)C(=O)N[C@@H](Cc2ccc3ccccc3c2)C(=O)N[C@@](C)(CCCCN)C(=O)N[C@@H](CCC(=O)O)C(=O)N[C@@H](CC(N)=O)C(=O)N[C@@H](CC(N)=O)C(N)=O)NC(=O)[C@H](CCC(N)=O)NC(=O)[C@H](Cc2c[nH]c3ccccc23)NC(=O)[C@H]([C@@H](C)O)NC(=O)[C@H](CCC(N)=O)NC1=O | < 10 | < 10 | 1 to 2 | > 6 |  | < 10
11 | COc1ccc(C[C@H](NC(=O)[C@@H](NC(=O)[C@H](CCC(N)=O)NC(=O)[C@H](Cc2c[nH]c3ccccc23)NC(=O)[C@@H](NC(=O)[C@H](CCC(N)=O)NC(=O)[C@@H](NC(=O)CCC(=O)O)C(C)(C)S)[C@@H](C)O)C(C)(C)S)C(=O)N[C@@H](Cc2ccc3ccccc3c2)C(=O)N[C@@](C)(CCCCN)C(=O)N[C@@H](CCCCNC(C)=O)C(=O)N[C@@H](CC(N)=O)C(=O)NCC(N)=O)cc1 | < 10 | 25 to 100 | 3 to 6 | > 6 |  | 25 to 100
12 | COc1ccc(C[C@H](NC(=O)[C@H]2NC(=O)[C@H](CCC(N)=O)NC(=O)[C@H](Cc3c[nH]c4ccccc34)NC(=O)[C@H]([C@@H](C)O)NC(=O)[C@H](CCC(N)=O)NC(=O)[C@@H](NC(C)=O)CCSC2(C)C)C(=O)N[C@@H](Cc2ccc3ccccc3c2)C(=O)N[C@@](C)(CCCCN)C(=O)N[C@@H](CCCCNC(C)=O)C(=O)N[C@@H](CC(N)=O)C(=O)NCC(N)=O)cc1 | 25 to 100 | 100 to 1000 | 2 to 3 | 3 to 6 |  | 25 to 100
13 | CC(=O)NCCCC[C@H](NC(=O)[C@](C)(CCCCN)NC(=O)[C@H](Cc1ccc2ccccc2c1)NC(=O)[C@H](Cc1ccc(OCCN)cc1)NC(=O)[C@@H]1CSCC[C@H](NC(C)=O)C(=O)N[C@@H](CCC(N)=O)C(=O)N[C@@H]([C@@H](C)O)C(=O)N[C@@H](Cc2c[nH]c3ccccc23)C(=O)N[C@@H](CCC(N)=O)C(=O)N1)C(=O)N[C@@H](CC(N)=O)C(=O)NCC(N)=O | < 10 | < 10 | > 6 | > 6 |  | < 10
14 | COc1ccc(C[C@H](NC(=O)[C@@H](NC(=O)[C@H](CCC(N)=O)NC(=O)[C@H](Cc2c[nH]c3ccccc23)NC(=O)[C@@H](NC(=O)[C@H](CCC(N)=O)NC(=O)[C@@H](NC(=O)[C@@H]2CCC(=O)N2)C(C)(C)S)[C@@H](C)O)C(C)(C)S)C(=O)N[C@@H](Cc2ccc3ccccc3c2)C(=O)N[C@@](C)(CCCCN)C(=O)N[C@@H](CCCCNC(C)=O)C(=O)N[C@@H](CC(N)=O)C(=O)NCC(N)=O)cc1 | < 10 | 25 to 100 | 3 to 6 | > 6 |  | 25 to 100
15 | COc1ccc(C[C@H](NC(=O)[C@@H]2CSCC[C@H](NC(C)=O)C(=O)N[C@@H](CCC(N)=O)C(=O)N[C@@H]([C@@H](C)O)C(=O)N[C@@H](Cc3c[nH]c4ccccc34)C(=O)N[C@@H](CCC(N)=O)C(=O)N2)C(=O)N[C@@H](Cc2c[nH]c3ccccc23)C(=O)N[C@@](C)(CCCN)C(=O)N[C@@H](CCC(=O)O)C(=O)N[C@@H](CC(N)=O)C(=O)NCC(N)=O)cc1 | < 10 | 25 to 100 | < 1 | 3 to 6 |  | 25 to 100
16 | COc1ccc(C[C@H](NC(=O)[C@@H]2CSCC[C@H](NC(C)=O)C(=O)N[C@@H](CCC(N)=O)C(=O)N[C@@H]([C@@H](C)O)C(=O)N[C@@H](Cc3c[nH]c4ccccc34)C(=O)N[C@@H](CCC(N)=O)C(=O)N2)C(=O)N[C@@H](Cc2cccc3ccccc23)C(=O)N[C@@](C)(CCCCN)C(=O)N[C@@H](CCCCNC(C)=O)C(=O)N[C@@H](CC(N)=O)C(=O)NCC(N)=O)cc1 | 10 to 25 | 25 to 100 | < 1 | > 6 |  | 25 to 100
